Reference: PMC9297976 (Journal of Applied Toxicology, 2021)
pEC50, pIC50: −log10 of the molar value.

Legend:
medaka ARβ (mArβ) [1] = target: T1, medaka ARβ (mArβ) (Oryzias latipes, UniProt D1MV73); assay: Medaka ARβ reporter gene assay, antagonist assay; format: cell-based, Japanese medaka (Oryzias latipes)
T1 sequence (D1MV73 1-744): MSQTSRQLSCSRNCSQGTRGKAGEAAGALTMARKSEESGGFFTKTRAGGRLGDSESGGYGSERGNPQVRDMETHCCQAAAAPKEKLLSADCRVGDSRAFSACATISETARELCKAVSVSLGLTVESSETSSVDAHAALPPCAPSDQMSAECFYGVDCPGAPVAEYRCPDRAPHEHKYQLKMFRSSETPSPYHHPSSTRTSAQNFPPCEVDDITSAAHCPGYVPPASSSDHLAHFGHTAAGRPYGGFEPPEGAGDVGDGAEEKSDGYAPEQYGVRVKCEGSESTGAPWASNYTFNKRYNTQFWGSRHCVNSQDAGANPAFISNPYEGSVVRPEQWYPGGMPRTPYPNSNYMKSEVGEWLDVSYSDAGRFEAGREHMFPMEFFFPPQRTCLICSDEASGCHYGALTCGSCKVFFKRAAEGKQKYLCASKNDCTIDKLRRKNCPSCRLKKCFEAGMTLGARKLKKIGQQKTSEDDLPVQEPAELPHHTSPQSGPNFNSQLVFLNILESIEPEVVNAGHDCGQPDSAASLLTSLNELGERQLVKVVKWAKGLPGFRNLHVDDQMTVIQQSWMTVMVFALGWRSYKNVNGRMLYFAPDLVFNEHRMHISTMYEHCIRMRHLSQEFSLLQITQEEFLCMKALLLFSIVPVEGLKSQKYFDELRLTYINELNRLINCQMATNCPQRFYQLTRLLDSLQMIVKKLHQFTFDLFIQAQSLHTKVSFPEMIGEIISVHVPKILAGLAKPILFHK

[2] = test system: Japanese medaka (Oryzias latipes); assay: Fish Short‐Term Reproduction Assay; format: in vivo; conditions: for GSI Female / GSI Male / HSI Female / HSI Male / Length Female / Length Male / Weight Female / Weight Male: completion of exposure
medaka ARβ (mArβ) [3] = target: T1, medaka ARβ (mArβ); assay: Medaka ARβ reporter gene assay, agonist assay; format: cell-based, Japanese medaka (Oryzias latipes); conditions: MAC = 1.0 × 10^−5 M
medaka Esr1 (mEsr1) [4] = target: T2, medaka Esr1 (mEsr1) (Oryzias latipes, UniProt P50241); assay: cell-based; parameters: species or system Japanese medaka (Oryzias latipes)
T2 sequence (P50241 1-620): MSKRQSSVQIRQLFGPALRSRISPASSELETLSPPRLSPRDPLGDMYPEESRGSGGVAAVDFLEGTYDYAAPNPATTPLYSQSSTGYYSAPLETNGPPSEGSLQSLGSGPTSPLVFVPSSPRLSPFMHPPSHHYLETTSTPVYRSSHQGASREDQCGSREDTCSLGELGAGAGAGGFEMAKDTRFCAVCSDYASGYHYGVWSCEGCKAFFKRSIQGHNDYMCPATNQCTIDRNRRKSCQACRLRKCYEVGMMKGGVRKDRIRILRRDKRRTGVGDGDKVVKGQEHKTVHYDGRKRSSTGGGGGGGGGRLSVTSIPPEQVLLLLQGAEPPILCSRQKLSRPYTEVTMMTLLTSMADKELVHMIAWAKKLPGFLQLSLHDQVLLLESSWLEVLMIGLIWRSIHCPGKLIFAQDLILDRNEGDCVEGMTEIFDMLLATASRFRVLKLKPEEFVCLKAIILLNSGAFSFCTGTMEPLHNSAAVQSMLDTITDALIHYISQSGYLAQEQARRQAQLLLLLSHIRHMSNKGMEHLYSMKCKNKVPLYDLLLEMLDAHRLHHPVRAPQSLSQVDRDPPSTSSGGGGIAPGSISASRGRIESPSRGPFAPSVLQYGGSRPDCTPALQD

medaka Esr1 (mEsr1) [5] = target: T2, medaka Esr1 (mEsr1); assay: Medaka Esr1 reporter gene assay, antagonist assay; format: cell-based, Japanese medaka (Oryzias latipes); conditions: E2 spiked at 1.0 nM (B); MAC = 1.0 × 10^−5 M
[6] = 1,009 ng/L measured, 21 d, sig. ↑ vs control
[7] = measured concentration 112 ng/L
[8] = measured concentration 272 ng/L
[9] = measured concentration 1,009 ng/L

`C[C@]12CC[C@@H]3c4ccc(O)cc4CC[C@H]3[C@@H]1CCC2=O` [Chemical E1, Estrone] was tested, and the pIC50 (medaka ARβ (mArβ) [1]; Antagonistic activity IC50, 11‐KT spiked at 50 nM (D)) was 5.82, the “In vitro positive: aAr” value (medaka ARβ (mArβ) [1]; mode of action in which IC50 or IC30 was obtained in RGA) was “aAr” and the “Antagonistic activity on mArβ (in words)” value (medaka ARβ (mArβ) [1]; transcriptional activity on mArβ by 11KT) was “inhibitory potency”. The Fertility rate ([2]; 29 ng/L measured, 21 d) was 92 ± 9.8%, the “Hepatic VTG, female” value ([2]; 29 ng/L measured, 21 d) was 652 ± 391 ng/mg‐liver and the “Hepatic VTG, male” value ([2]; 29 ng/L measured, 21 d) was 47.9 ± 54.0 ng/mg‐liver. For the same compound, the Mortality ([2]; 29 ng/L measured, 21 d) was 0.0%, the “Mortality, number of dead fish” value ([2]; 29 ng/L measured, 21 d) was 0 and the “Number of fertilized eggs (per female per day)” value ([2]; 29 ng/L measured, 21 d) was 17 ± 4.4. The “Number of total eggs (per female per day)” value ([2]; 29 ng/L measured, 21 d) was 18 ± 3.2, the “SSC female (joint plates with papillary processes)” value (from here on “SSC female”) ([2]; 29 ng/L measured, 21 d) was 0 ± 0 and the “SSC male (joint plates with papillary processes)” value (from here on “SSC male”) ([2]; 29 ng/L measured, 21 d) was 97 ± 14. The Fertility rate ([2]; 112 ng/L measured, 21 d) was 96 ± 1.3%, the “Hepatic VTG, female” value ([2]; 112 ng/L measured, 21 d) was 977 ± 274 ng/mg‐liver and the “Hepatic VTG, male” value ([2]; 112 ng/L measured, 21 d) was 382 ± 351 ng/mg‐liver. For the same compound, the Mortality ([2]; 112 ng/L measured, 21 d) was 0.0%, the “Mortality, number of dead fish” value ([2]; 112 ng/L measured, 21 d) was 0 and the “Number of fertilized eggs (per female per day)” value ([2]; 112 ng/L measured, 21 d) was 19 ± 2.4. The “Number of total eggs (per female per day)” value ([2]; 112 ng/L measured, 21 d) was 19 ± 2.6, the “SSC female” value ([2]; 112 ng/L measured, 21 d) was 0 ± 0 and the “SSC male” value ([2]; 112 ng/L measured, 21 d) was 98 ± 25. For the same compound, the Fertility rate ([2]; 272 ng/L measured, 21 d) was 96 ± 2.8%, the “Hepatic VTG, female” value ([2]; 272 ng/L measured, 21 d) was 1,017 ± 238 ng/mg‐liver and the Mortality ([2]; 272 ng/L measured, 21 d) was 0.0%. The “Mortality, number of dead fish” value ([2]; 272 ng/L measured, 21 d) was 0, the “Number of fertilized eggs (per female per day)” value ([2]; 272 ng/L measured, 21 d) was 16 ± 2.5 and the “Number of total eggs (per female per day)” value ([2]; 272 ng/L measured, 21 d) was 17 ± 2.5. The “SSC female” value ([2]; 272 ng/L measured, 21 d) was 0 ± 0, the “SSC male” value ([2]; 272 ng/L measured, 21 d) was 85 ± 14 and the “Hepatic VTG, male” value ([2]; 272 ng/L measured, 21 d, sig. ↑ vs control) was 3,649 ± 665 ng/mg‐liver. For the same compound, the Fertility rate ([2]; 1,009 ng/L measured, 21 d) was 86 ± 3.6%, the Mortality ([2]; 1,009 ng/L measured, 21 d) was 0.0% and the “Mortality, number of dead fish” value ([2]; 1,009 ng/L measured, 21 d) was 0. For the same compound, the “SSC female” value ([2]; 1,009 ng/L measured, 21 d) was 0 ± 0, the “SSC male” value ([2]; 1,009 ng/L measured, 21 d) was 85 ± 18 and the “Hepatic VTG, female” value [2, 6] was 1994 ± 1,480 ng/mg‐liver. For the same compound, the “Hepatic VTG, male” value [2, 6] was 5,429 ± 687 ng/mg‐liver, the “Number of total eggs (per female per day)” value ([2]; 1,009 ng/L measured, 21 d, sig. ↓ vs control) was 10 ± 2.0 and the “Fecundity, number of total eggs (in words)” value ([2]; 21 d) was “statistically significant decrease”. For the same compound, the “LOEC, elevated hepatic VTG in males” value ([2]; 21 d) was 272 ng/L, the LOECREPRO ([2]; LOEC on reproduction (fecundity and/or fertility)) was 1.009 µg/L and the minimal effective concentration ([2]; Oryzias latipes, 504 h, read-out: LOECmVTG) was 0.000272 µg/mL. The “Fertility rate (in words)” value ([2]; chemicals with significant decrease of number of total eggs) was “no significant effect”, the “LOECREPRO (reduction in fecundity or fertility)” value ([2]; concentrations without overt toxicity) was 1.009 µg/L and the LOECTOX ([2]; lowest observed effect concentration on mortality) was “ND (>1.009) μg/L”. For the same compound, the “GSI Female” value ([2]; measured concentration 29 ng/L) was 10.7 ± 1.4%, the “GSI Male” value ([2]; measured concentration 29 ng/L) was 1.15 ± 0.31% and the “HSI Female” value ([2]; measured concentration 29 ng/L) was 5.4 ± 0.61%. For the same compound, the “HSI Male” value ([2]; measured concentration 29 ng/L) was 2.0 ± 0.28%, the “Length Female” value ([2]; measured concentration 29 ng/L) was 33.8 ± 1.0 mm and the “Length Male” value ([2]; measured concentration 29 ng/L) was 35.8 ± 1.7 mm. The “Weight Female” value ([2]; measured concentration 29 ng/L) was 454 ± 56 mg, the “Weight Male” value ([2]; measured concentration 29 ng/L) was 468 ± 85 mg and the “GSI Female” value [2, 7] was 11.2 ± 1.8%. The “GSI Male” value [2, 7] was 1.17 ± 0.27%, the “HSI Female” value [2, 7] was 5.5 ± 0.77% and the “HSI Male” value [2, 7] was 2.1 ± 0.54%. For the same compound, the “Length Female” value [2, 7] was 34.3 ± 1.6 mm, the “Length Male” value [2, 7] was 36.5 ± 1.2 mm and the “Weight Female” value [2, 7] was 460 ± 86 mg. The “Weight Male” value [2, 7] was 481 ± 44 mg, the “GSI Female” value [2, 8] was 11.3 ± 1.0% and the “GSI Male” value [2, 8] was 0.84 ± 0.32%. For the same compound, the “HSI Female” value [2, 8] was 6.0 ± 0.76%, the “HSI Male” value [2, 8] was 2.7 ± 0.38% and the “Length Female” value [2, 8] was 34.0 ± 1.0 mm. The “Length Male” value [2, 8] was 36.5 ± 1.3 mm, the “Weight Female” value [2, 8] was 417 ± 41 mg and the “Weight Male” value [2, 8] was 464 ± 62 mg. For the same compound, the “GSI Female” value [2, 9] was 11.4 ± 7.1%, the “GSI Male” value [2, 9] was 0.48 ± 0.23% and the “HSI Female” value [2, 9] was 5.1 ± 1.24%. For the same compound, the “HSI Male” value [2, 9] was 3.5 ± 0.50%, the “Length Female” value [2, 9] was 34.2 ± 2.1 mm and the “Length Male” value [2, 9] was 35.9 ± 1.4 mm. The “Weight Female” value [2, 9] was 443 ± 97 mg, the “Weight Male” value [2, 9] was 468 ± 54 mg and the Agonistic activity (medaka ARβ (mArβ) [3]) was “NE (MAC = 1.0 × 10^−5 M)”. For the same compound, the pEC50 (medaka Esr1 (mEsr1) [4]) was 8.27, the “In vitro positive: Esr” value (medaka Esr1 (mEsr1) [4]; mode of action in which EC50 or PC10 was obtained in RGA) was “Esr” and the Antagonistic activity (medaka Esr1 (mEsr1) [5]) was “NE (MAC = 1.0 × 10^−5 M)^(B)”.
